Values quoted from earlier work in US20100087475A1, “PHARMACEUTICAL COMPOUNDS” (Biovali Laboratories International (Barbados) S.R.L., priority 2008, published 2010).

Molecular target: VMAT2 (Homo sapiens, UniProt Q05940)
Settings: Erickson et al. (1996); cited from earlier work

Chain of VMAT2 (Q05940 whole entry): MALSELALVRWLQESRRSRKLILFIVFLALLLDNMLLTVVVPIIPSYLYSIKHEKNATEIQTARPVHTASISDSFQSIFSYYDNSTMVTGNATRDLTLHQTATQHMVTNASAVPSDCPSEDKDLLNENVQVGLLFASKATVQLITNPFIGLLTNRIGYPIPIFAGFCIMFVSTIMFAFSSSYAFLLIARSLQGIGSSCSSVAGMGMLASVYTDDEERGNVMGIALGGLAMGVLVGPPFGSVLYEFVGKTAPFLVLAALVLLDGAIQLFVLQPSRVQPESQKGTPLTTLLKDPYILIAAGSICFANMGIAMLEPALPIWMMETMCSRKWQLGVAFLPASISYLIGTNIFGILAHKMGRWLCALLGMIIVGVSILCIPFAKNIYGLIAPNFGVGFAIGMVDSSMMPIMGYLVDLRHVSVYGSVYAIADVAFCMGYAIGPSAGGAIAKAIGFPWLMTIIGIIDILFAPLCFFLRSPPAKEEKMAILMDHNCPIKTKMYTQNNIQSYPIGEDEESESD

COc1cc2c(cc1OC)C1CC(=O)C(CC(C)C)CN1CC2 (stereo not shown) [tetrabenazine, 1,3,4,6,7,11b-hexahydro-9,10-dimethoxy-3-(2-methylpropyl)-2H-benzo(a)quinolizin-2-one]
affinity for VMAT2 in comparison to VMAT1: ≥ 200 fold
